This is an account of results in US9029359B2, “Heteroaryl Btk inhibitors” (Biogen Idec MA, Inc., priority 2009, dated 2015).

In general, IC50 refers to the concentration needed to halve the response being measured. A low value points to greater potency.

Some results are limits rather than exact numbers.

The target of the assay is T1, BTK (Homo sapiens, UniProt Q06187).
T1 construct: purchased Upstate 14-552
T1 sequence (Q06187 whole entry): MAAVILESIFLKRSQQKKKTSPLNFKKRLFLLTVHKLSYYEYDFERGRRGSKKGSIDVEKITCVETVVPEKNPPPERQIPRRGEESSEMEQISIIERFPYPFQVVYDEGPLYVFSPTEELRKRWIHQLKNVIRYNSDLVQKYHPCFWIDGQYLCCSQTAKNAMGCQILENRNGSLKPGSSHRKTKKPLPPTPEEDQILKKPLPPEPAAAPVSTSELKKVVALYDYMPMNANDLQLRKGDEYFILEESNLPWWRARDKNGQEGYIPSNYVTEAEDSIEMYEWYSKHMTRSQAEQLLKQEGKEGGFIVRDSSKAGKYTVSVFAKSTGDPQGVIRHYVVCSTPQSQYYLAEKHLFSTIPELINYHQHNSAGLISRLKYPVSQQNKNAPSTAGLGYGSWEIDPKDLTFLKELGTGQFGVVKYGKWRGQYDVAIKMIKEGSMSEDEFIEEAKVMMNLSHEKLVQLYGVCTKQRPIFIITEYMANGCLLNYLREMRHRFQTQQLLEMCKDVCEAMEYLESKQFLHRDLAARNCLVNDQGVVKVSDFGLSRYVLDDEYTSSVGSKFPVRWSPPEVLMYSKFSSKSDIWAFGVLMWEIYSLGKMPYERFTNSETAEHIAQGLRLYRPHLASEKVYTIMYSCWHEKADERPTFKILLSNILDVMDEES
Kind of assay: In vitro BTK kinase assay: BTK-POLYGAT-LS ASSAY. The class given is biochemical. The settings on record: ATP 10 uM. On the procedure: In vitro BTK kinase assay: BTK-POLYGAT-LS ASSAY. The purpose of the BTK in vitro assay is to determine compound potency against BTK through the measurement of IC50. […] A 24 μL aliquot of a ATP/peptide master mix (final concentration; ATP 10 μM, polyGAT 100 nM) in kinase buffer (10 mM Tris-HCl pH 7.5, 10 mM MgCl2, 200 μM Na3VO4, 5 mM DTT, 0.01% Triton X-100, and 0.2 mg/ml Casein) is added to each well. […] The assay is incubated for 30 minutes before being stopped with 28 μL of a 50 mM EDTA solution. […] The plate is covered and incubated for 45 minutes at room temperature. Time resolved fluorescence (TRF) on Molecular Devices M5 (332 nm excitation; 488 nm emission; 518 nm fluorescein emission) is measured.
The compound `O=C(CNC(=O)Nc1ccccc1)NC1CCCN(c2ncnc3[nH]ccc23)C1` (stereo not drawn) [Example 2, (N-(1-(7H-pyrrolo[2,3-d]pyrimidin-4-yl)piperidin-3-yl)-2-(3-phenylureido)acetamide)] gave an IC50 of 100 to 999 nM.
With `O=C(CNC(=O)c1ccccc1)NC1CCCN(c2ncnc3[nH]ccc23)C1` (stereo not drawn) [Example 3, (N-(2-(1-(7H-pyrrolo[2,3-d]pyrimidin-4-yl)piperidin-3-ylamino)-2-oxoethyl)benzamide)], the half-maximal inhibitory concentration (IC50) was in the range of 100 to 999 nM.
The result for `O=C(Nc1ccccc1)C(=O)NC1CCCN(c2ncnc3[nH]ccc23)C1` (stereo not drawn) [Example 4] reads above 10000 nM.
The result for `O=C(COc1ccccc1)NC1CCCN(c2ncnc3[nH]ccc23)C1` (stereo not drawn) [Example 8, (N-(1-(7H-pyrrolo[2,3-d]pyrimidin-4-yl)piperidin-3-yl)-2-phenoxyacetamide)] reads 1000 to 10000 nM; that for `O=C(N[C@@H]1CCCN(c2ncnc3[nH]ccc23)C1)[C@H]1CCc2ccccc2N1` [Example 14, (R)—N—((R)-1-(7H-pyrrolo[2,3-d]pyrimidin-4-yl)piperidin-3-yl)-1,2,3,4-tetrahydroquinoline-2-carboxamide], 1000 to 10000 nM.
The result for `O=C(N[C@@H]1CCCN(c2ncnc3[nH]ccc23)C1)[C@@H]1CCc2ccccc2N1` [Example 15, (S)—N—((R)-1-(7H-pyrrolo[2,3-d]pyrimidin-4-yl)piperidin-3-yl)-1,2,3,4-tetrahydroquinoline-2-carboxamide] reads 1000 to 10000 nM; that for `CN(CC(=O)NC1CCCN(c2ncnc3[nH]ccc23)C1)c1ccccc1` (stereo not drawn) [Example 16, (N-(1-(7H-pyrrolo[2,3-d]pyrimidin-4-yl)piperidin-3-yl)-2-(methyl(phenyl)amino)acetamide)], 1000 to 10000 nM.
With `CC(C)(C)c1ccccc1NCC(=O)NC1CCCN(c2ncnc3[nH]ccc23)C1` (stereo not drawn) [Example 17, (N-(1-(7H-pyrrolo[2,3-d]pyrimidin-4-yl)piperidin-3-yl)-2-(2-tert-butylphenylamino)acetamide)], the concentration for half-maximal inhibition (IC50) lay in the range of 1000 to 10000 nM.
To `CC(C)(C)c1cccc(NCC(=O)NC2CCCN(c3ncnc4[nH]ccc34)C2)c1` (stereo not drawn) [Example 18, (N-(1-(7H-pyrrolo[2,3-d]pyrimidin-4-yl)piperidin-3-yl)-2-(3-ten-butylphenylamino)acetamide)] belongs 100 to 999 nM; to `CC(C)(C)c1ccc(NCC(=O)NC2CCCN(c3ncnc4[nH]ccc34)C2)cc1` (stereo not drawn) [Example 19, (N-(1-(7H-pyrrolo[2,3-d]pyrimidin-4-yl)piperidin-3-yl)-2-(4-tert-butylphenylamino)acetamide)], above 10000 nM.
To `O=C(CNc1ccccc1Cl)NC1CCCN(c2ncnc3[nH]ccc23)C1` (stereo not drawn) [Example 20, (N-(1-(7H-pyrrolo[2,3-d]pyrimidin-4-yl)piperidin-3-yl)-2-(2-chlorophenylamino)acetamide)] belongs 100 to 999 nM.
The result for `O=C(CNc1ccc(Cl)cc1)NC1CCCN(c2ncnc3[nH]ccc23)C1` (stereo not drawn) [Example 22, (N-(1-(7H-pyrrolo[2,3-d]pyrimidin-4-yl)piperidin-3-yl)-2-(4-chlorophenylamino)acetamide)] reads 100 to 999 nM; that for `O=C(CNc1ccccc1F)NC1CCCN(c2ncnc3[nH]ccc23)C1` (stereo not drawn) [Example 23, (N-(1-(7H-pyrrolo[2,3-d]pyrimidin-4-yl)piperidin-3-yl)-2-(2-fluorophenylamino)acetamide)], 100 to 999 nM; that for `O=C(CNc1cccc2c1OC(F)(F)O2)NC1CCCN(c2ncnc3[nH]ccc23)C1` (stereo not drawn) [Example 25, (N-(1-(7H-pyrrolo[2,3-d]pyrimidin-4-yl)piperidin-3-yl)-2-(2,2-difluorobenzo[d][1,3]dioxol-4-ylamino)acetamide)], below 100 nM.
`NS(=O)(=O)c1cccc(NCC(=O)NC2CCCN(c3ncnc4[nH]ccc34)C2)c1` (stereo not drawn) [Example 26, (N-(1-(7H-pyrrolo[2,3-d]pyrimidin-4-yl)piperidin-3-yl)-2-(3-sulfamoylphenylamino)acetamide)] gave an IC50 above 10000 nM.
